# Source: the supplement of paper PMC10307832
# Compound: Cc1cnc(Nc2ccc(OCCN3CCCC3)cc2)nc1Nc1cccc(S(=O)(=O)NC(C)(C)C)c1 [Fedratinib] + NC(=O)Nc1cc(-c2cccc(F)c2)sc1C(=O)N[C@H]1CCCNC1 [AZD7762] (partner 0.2 µM)
# Test: relative viability (nuclei count vs DMSO), 5 days (fraction); higher = more cells survive
# Conditions: first compound 0.1 µM
# Outline: (§1)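 Dosing by pin tool came one day after lung cancer cell lines were seeded in 1536-well plates, using either one drug or a fixed anchor-drug dose plus five library-drug doses (not always all listed) in √10 steps. After 5 days, nuclei were counted on 4× images. Relative viability is treated-well nuclei count divided by vehicle-well nuclei count, and values are medians of duplicate plates.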
row,Cell Line,relative viability
1,ChaGo-K-1,0.921
2,NCI-H2405,0.7
3,HOP-62,0.734
4,HCC-44,0.995
5,LU99A,0.322
6,BEN,0.623
7,HARA,0.429
8,HCC-78,0.582
9,NCI-H322M,0.596
10,LCLC-97TM1,0.342
11,A-427,0.573
12,NCI-H441,1.34
13,NCI-H1734,0.709
14,NCI-H460,0.738
15,NCI-H2347,0.757
16,201T,0.753
17,NCI-H1915,0.754
18,HCC-827,0.161

row,Cell Line,relative viability
1,LXF-289,1.08
2,NCI-H23,0.356
3,NCI-H647,0.424
4,NCI-H1651,0.502
5,EPLC-272H,0.222
6,NCI-H1792,0.58
7,NCI-H1355,0.646
8,NCI-H3122,1.07
9,NCI-H1437,1.13
10,NCI-H1755,0.422
11,HCC-15,1.19
12,PC-14,0.275
13,EKVX,0.738
14,LC-2-ad,0.829
15,NCI-H1975,0.562
16,RERF-LC-KJ,0.895
17,ABC-1,0.741

# Same assay, conditions: first compound 0.3162 µM
row,Cell Line,relative viability
1,ChaGo-K-1,0.829
2,NCI-H2405,0.764
3,HOP-62,0.566
4,HCC-44,1
5,LU99A,0.325
6,BEN,0.553
7,HARA,0.28
8,HCC-78,0.526
9,NCI-H322M,0.591
10,LCLC-97TM1,0.154
11,A-427,0.671
12,NCI-H441,1.09
13,NCI-H1734,0.512
14,NCI-H460,0.563
15,NCI-H2347,0.645
16,201T,0.531
17,NCI-H1915,0.66
18,HCC-827,0.205

row,Cell Line,relative viability
1,LXF-289,1.07
2,NCI-H23,0.27
3,NCI-H647,0.444
4,NCI-H1651,0.404
5,EPLC-272H,0.24
6,NCI-H1792,0.774
7,NCI-H1355,0.707
8,NCI-H3122,1.02
9,NCI-H1437,1.13
10,NCI-H1755,0.47
11,HCC-15,1.28
12,PC-14,0.349
13,EKVX,0.815
14,LC-2-ad,0.863
15,NCI-H1975,0.676
16,RERF-LC-KJ,0.918
17,ABC-1,0.877

# Same assay, conditions: first compound 1 µM
row,Cell Line,relative viability
1,ChaGo-K-1,0.81
2,NCI-H2405,0.528
3,HOP-62,0.555
4,HCC-44,1
5,LU99A,0.272
6,BEN,0.568
7,HARA,0.23
8,HCC-78,0.497
9,NCI-H322M,0.414
10,LCLC-97TM1,0.21
11,A-427,0.556
12,NCI-H441,1.05
13,NCI-H1734,0.515
14,NCI-H460,0.544
15,NCI-H2347,0.857
16,201T,0.593
17,NCI-H1915,0.67
18,HCC-827,0.219

row,Cell Line,relative viability
1,LXF-289,0.966
2,NCI-H23,0.183
3,NCI-H647,0.249
4,NCI-H1651,0.435
5,EPLC-272H,0.168
6,NCI-H1792,0.483
7,NCI-H1355,0.612
8,NCI-H3122,0.912
9,NCI-H1437,1.09
10,NCI-H1755,0.43
11,HCC-15,1.2
12,PC-14,0.215
13,EKVX,0.656
14,LC-2-ad,0.818
15,NCI-H1975,0.566
16,RERF-LC-KJ,0.953
17,ABC-1,0.792

# Compound: COC1=CC=C(C=C1)COC2=C(C=C(C=C2)CC3=CN=C(N=C3N)N)OC [GW-2580] + CC(C)C[C@H](NC(=O)[C@H](Cc1ccccc1)NC(=O)c1cnccn1)B(O)O [Bortezomib] (partner 0.002 µM)
# Test: as above
# Conditions: first compound 0.08 µM
# Outline: as §1
row,Cell Line,relative viability
1,ChaGo-K-1,0.996
2,NCI-H2405,1.02
3,HOP-62,1.13
4,HCC-44,0.95
5,LU99A,1.1
6,BEN,0.674
7,HARA,1.2
8,HCC-78,0.457
9,NCI-H322M,1.29
10,LCLC-97TM1,0.404
11,A-427,1.14
12,NCI-H441,0.608
13,NCI-H1734,0.976
14,NCI-H460,1.29
15,NCI-H2347,1.01
16,201T,1.15
17,NCI-H1915,1
18,HCC-827,0.964

row,Cell Line,relative viability
1,LXF-289,1
2,NCI-H23,0.979
3,NCI-H647,1.1
4,NCI-H1651,0.953
5,EPLC-272H,1.33
6,NCI-H1792,0.926
7,NCI-H1355,1.24
8,NCI-H3122,1.04
9,NCI-H1437,0.654
10,NCI-H1755,1.03
11,HCC-15,1.06
12,PC-14,0.934
13,EKVX,1.09
14,LC-2-ad,1.05
15,NCI-H1975,0.373
16,RERF-LC-KJ,1.22
17,ABC-1,0.295

# Same assay, conditions: first compound 0.8 µM
row,Cell Line,relative viability
1,ChaGo-K-1,1.09
2,NCI-H2405,1.03
3,HOP-62,0.861
4,HCC-44,0.997
5,LU99A,1.15
6,BEN,0.879
7,HARA,1.17
8,HCC-78,0.422
9,NCI-H322M,1.4
10,LCLC-97TM1,1.02
11,A-427,1.13
12,NCI-H441,0.254
13,NCI-H1734,0.995
14,NCI-H460,1.27
15,NCI-H2347,1.23
16,201T,1.12
17,NCI-H1915,1.11
18,HCC-827,1.12

row,Cell Line,relative viability
1,LXF-289,1.06
2,NCI-H23,0.988
3,NCI-H647,0.994
4,NCI-H1651,1.08
5,EPLC-272H,1.07
6,NCI-H1792,1.07
7,NCI-H1355,1.38
8,NCI-H3122,0.939
9,NCI-H1437,0.569
10,NCI-H1755,1.1
11,HCC-15,1.16
12,PC-14,1.09
13,EKVX,1.12
14,LC-2-ad,1.08
15,NCI-H1975,0.368
16,RERF-LC-KJ,1.06
17,ABC-1,0.324

# Same assay, conditions: first compound 2.53 µM
row,Cell Line,relative viability
1,ChaGo-K-1,0.989
2,NCI-H2405,0.807
3,HOP-62,0.406
4,HCC-44,0.822
5,LU99A,0.986
6,BEN,0.55
7,HARA,1.33
8,HCC-78,0.353
9,NCI-H322M,1.31
10,LCLC-97TM1,0.288
11,A-427,0.915
12,NCI-H441,0.288
13,NCI-H1734,0.775
14,NCI-H460,1.03
15,NCI-H2347,0.842
16,201T,1.11
17,NCI-H1915,0.959
18,HCC-827,1.01

row,Cell Line,relative viability
1,LXF-289,0.93
2,NCI-H23,1.12
3,NCI-H647,0.756
4,NCI-H1651,0.89
5,EPLC-272H,0.963
6,NCI-H1792,0.734
7,NCI-H1355,1.06
8,NCI-H3122,1.1
9,NCI-H1437,0.518
10,NCI-H1755,0.883
11,HCC-15,1.05
12,PC-14,0.779
13,EKVX,0.874
14,LC-2-ad,0.922
15,NCI-H1975,0.317
16,RERF-LC-KJ,1.04
17,ABC-1,0.287

# Same assay, conditions: first compound 8 µM
row,Cell Line,relative viability
1,ChaGo-K-1,1
2,NCI-H2405,0.951
3,HOP-62,0.727
4,HCC-44,0.914
5,LU99A,1.17
6,BEN,0.799
7,HARA,1.31
8,HCC-78,0.465
9,NCI-H322M,1.43
10,LCLC-97TM1,0.982
11,A-427,0.878
12,NCI-H441,1.13
13,NCI-H1734,0.967
14,NCI-H460,1.19
15,NCI-H2347,1.26
16,201T,1.14
17,NCI-H1915,1.05
18,HCC-827,0.952

row,Cell Line,relative viability
1,LXF-289,0.916
2,NCI-H23,1.04
3,NCI-H647,1.09
4,NCI-H1651,0.942
5,EPLC-272H,1.01
6,NCI-H1792,1.1
7,NCI-H1355,1.16
8,NCI-H3122,1.11
9,NCI-H1437,0.516
10,NCI-H1755,0.852
11,HCC-15,1.02
12,PC-14,0.95
13,EKVX,1.01
14,LC-2-ad,1.08
15,NCI-H1975,0.366
16,RERF-LC-KJ,1.08
17,ABC-1,0.306

# Compound: COC1=CC=C(C=C1)COC2=C(C=C(C=C2)CC3=CN=C(N=C3N)N)OC [GW-2580] + Nc1ncn([C@H]2C[C@H](O)[C@@H](CO)O2)c(=O)n1 [Decitabine] (partner 2 µM)
# Test: as above
# Conditions: first compound 0.08 µM
# Outline: as §1
row,Cell Line,relative viability
1,ChaGo-K-1,0.561
2,NCI-H2405,0.739
3,HOP-62,0.174
4,HCC-44,0.97
5,LU99A,0.924
6,BEN,0.703
7,HARA,0.658
8,HCC-78,0.699
9,NCI-H322M,0.73
10,LCLC-97TM1,0.241
11,A-427,0.541
12,NCI-H441,0.207
13,NCI-H1734,0.522
14,NCI-H460,0.577
15,NCI-H2347,0.676
16,201T,0.895
17,NCI-H1915,0.248
18,HCC-827,0.275

row,Cell Line,relative viability
1,LXF-289,0.358
2,NCI-H23,0.324
3,NCI-H647,0.402
4,NCI-H1651,0.565
5,EPLC-272H,0.391
6,NCI-H1792,0.574
7,NCI-H1355,0.314
8,NCI-H3122,0.377
9,NCI-H1437,0.564
10,NCI-H1755,0.695
11,HCC-15,0.631
12,PC-14,0.191
13,EKVX,0.578
14,LC-2-ad,0.82
15,NCI-H1975,0.417
16,RERF-LC-KJ,0.687
17,ABC-1,0.72

# Same assay, conditions: first compound 0.8 µM
row,Cell Line,relative viability
1,ChaGo-K-1,0.515
2,NCI-H2405,0.766
3,HOP-62,0.192
4,HCC-44,0.912
5,LU99A,1.05
6,BEN,0.79
7,HARA,0.617
8,HCC-78,0.786
9,NCI-H322M,0.816
10,LCLC-97TM1,0.224
11,A-427,0.555
12,NCI-H441,0.198
13,NCI-H1734,0.457
14,NCI-H460,0.574
15,NCI-H2347,0.662
16,201T,0.914
17,NCI-H1915,0.272

row,Cell Line,relative viability
1,HCC-827,0.317
2,LXF-289,0.391
3,NCI-H23,0.334
4,NCI-H647,0.272
5,NCI-H1651,0.666
6,EPLC-272H,0.366
7,NCI-H1792,0.546
8,NCI-H1355,0.339
9,NCI-H3122,0.411
10,NCI-H1437,0.574
11,NCI-H1755,0.714
12,HCC-15,0.818
13,PC-14,0.198
14,EKVX,0.749
15,LC-2-ad,0.913
16,NCI-H1975,0.455
17,RERF-LC-KJ,0.799
